From ChEMBL document CHEMBL5032495, “Discovery of Novel Tacrine-Pyrimidone Hybrids as Potent Dual AChE/GSK-3 Inhibitors for the Treatment of Alzheimer's Disease” (J Med Chem, 2021) come the findings set out here.

The target in one assay is T1, Acetylcholinesterase (Mus musculus, UniProt P21836).
T1 sequence (P21836 whole entry): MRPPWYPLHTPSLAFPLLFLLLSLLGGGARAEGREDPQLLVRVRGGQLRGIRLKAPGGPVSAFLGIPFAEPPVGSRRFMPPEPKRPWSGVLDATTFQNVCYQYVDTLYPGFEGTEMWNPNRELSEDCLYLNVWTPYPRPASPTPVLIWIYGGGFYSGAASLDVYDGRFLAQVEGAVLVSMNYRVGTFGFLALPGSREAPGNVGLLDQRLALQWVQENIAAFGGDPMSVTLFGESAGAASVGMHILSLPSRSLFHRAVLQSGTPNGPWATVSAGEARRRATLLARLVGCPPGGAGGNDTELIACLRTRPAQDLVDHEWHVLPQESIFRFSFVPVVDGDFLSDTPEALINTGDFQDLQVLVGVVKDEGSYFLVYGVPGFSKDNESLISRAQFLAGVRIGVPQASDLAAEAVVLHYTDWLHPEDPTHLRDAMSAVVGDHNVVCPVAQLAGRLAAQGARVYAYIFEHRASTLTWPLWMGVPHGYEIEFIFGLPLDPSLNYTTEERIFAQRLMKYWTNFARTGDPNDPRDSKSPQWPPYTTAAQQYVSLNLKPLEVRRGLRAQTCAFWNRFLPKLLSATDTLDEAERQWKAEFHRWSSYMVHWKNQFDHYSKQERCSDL
Kind of assay: Inhibition of mouse AChE using acetylthiocholine iodide as substrate incubated for 20 mins by Ellman's method.

Assay [1] concerns the target Glycogen synthase kinase-3 beta (Homo sapiens, UniProt P49841). The experiment in a line: Inhibition of human recombinant GSK-3beta using prephosphorylated polypeptide as substrate incubated for 30 mins in presence of ATP by Kinase-Glo luminescence assay relative to control. Background: Kinase-Glo measures the ATP left after a reaction by luminescence.

Glycogen synthase kinase-3 beta, sequence (P49841 whole entry, looked up): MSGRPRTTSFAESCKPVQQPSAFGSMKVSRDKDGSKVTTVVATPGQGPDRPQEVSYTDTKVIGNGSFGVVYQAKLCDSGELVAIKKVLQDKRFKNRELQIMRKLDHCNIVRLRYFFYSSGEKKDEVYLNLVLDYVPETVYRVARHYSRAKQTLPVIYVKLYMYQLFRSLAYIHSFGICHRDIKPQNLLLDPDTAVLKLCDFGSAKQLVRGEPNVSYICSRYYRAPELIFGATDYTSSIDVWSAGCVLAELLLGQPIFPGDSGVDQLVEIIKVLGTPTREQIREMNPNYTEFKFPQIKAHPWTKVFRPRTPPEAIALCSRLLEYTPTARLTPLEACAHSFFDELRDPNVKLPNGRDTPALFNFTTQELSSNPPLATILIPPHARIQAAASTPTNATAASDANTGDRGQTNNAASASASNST

In the case of `COc1ccc2nc3c(c(NCCNc4nc(-c5ccncc5)cc(=O)n4C)c2c1)CCCC3`, the IC50 (usually the point on the concentration scale where inhibition reaches its midpoint) at Acetylcholinesterase turned out to be 15.7 µM. Moreover, in assay [1], the inhibition – broadly, the percentage by which the read-out fell short of the control – was less than 50%.

The molecule `Cn1c(NCCCCCCCNc2c3c(nc4cc(Br)ccc24)CCCC3)nc(-c2ccncc2)cc1=O` showed an IC50 against Acetylcholinesterase of 39 µM. Besides, the inhibition in assay [1] was less than 60%.

At Acetylcholinesterase, `Cc1ccc2c(NCCNc3nc(-c4ccncc4)cc(=O)n3C)c3c(nc2c1)CCCC3` registered an IC50 of 1.89 µM. Further, in assay [1], the inhibition is less than 50%.

The molecule `Cn1c(NCCNc2c3c(nc4cc(Cl)ccc24)CCCC3)nc(-c2ccncn2)cc1=O` came in with an IC50 against Acetylcholinesterase of 0.42 µM. Also, the inhibition in assay [1] was less than 50%.

On to `COc1ccc2c(NCCNc3nc(-c4ccncn4)cc(=O)n3C)c3c(nc2c1)CCCC3`, for which, on Acetylcholinesterase, half-maximal inhibition (IC50) was put at 23 µM. Further, in assay [1], the inhibition is less than 50%.

On to `Cn1c(NCCCCCCCNc2c3c(nc4cc(Cl)ccc24)CCCC3)nc(-c2ccncc2)cc1=O`, for which half-maximal inhibition against Acetylcholinesterase (IC50) was put at 37.5 µM. Besides, the inhibition in assay [1] was less than 60%.

As for `Cc1ccc2c(NCCCCCCCNc3nc(-c4ccncc4)cc(=O)n3C)c3c(nc2c1)CCCC3`, half-maximal inhibition on Acetylcholinesterase (IC50) required 145 µM. Further, the inhibition in assay [1] was less than 60%.

`Cn1c(NCCNc2c3c(nc4ccc(Br)cc24)CCCC3)nc(-c2ccncc2)cc1=O`: half-maximal inhibition on Acetylcholinesterase (IC50) required 15.8 µM. In addition, the inhibition in assay [1] was less than 50%.

Regarding `Cc1ccc2nc3c(c(NCCNc4nc(-c5ccncc5)cc(=O)n4C)c2c1)CCCC3`, the IC50 against Acetylcholinesterase is 20 µM. In addition, the inhibition in assay [1] was less than 50%.

Regarding `Cn1c(NCCCCCCNc2c3c(nc4ccc(F)cc24)CCCC3)nc(-c2ccncc2)cc1=O`, at Acetylcholinesterase, half-maximal inhibition (IC50) required 2420 µM. Moreover, the inhibition in assay [1] is less than 60%.

On to `Cc1ccc2c(NCCCCCCNc3nc(-c4ccncc4)cc(=O)n3C)c3c(nc2c1)CCCC3`, for which the IC50 against Acetylcholinesterase was found to be 239 µM. Also, the inhibition in assay [1] was less than 60%.

The molecule `Cn1c(NCCNc2c3c(nc4cc(F)ccc24)CCCC3)nc(-c2ccncc2)cc1=O` yielded an IC50 against Acetylcholinesterase of 3.9 µM. Moreover, in assay [1], the inhibition was less than 50%.

As for `Cn1c(NCCCCCCCNc2c3c(nc4ccc(F)cc24)CCCC3)nc(-c2ccncc2)cc1=O`, half-maximal inhibition at Acetylcholinesterase (IC50) was put at 1800 µM. The inhibition in assay [1] is less than 60%.

Consider `Cn1c(NCCNc2c3c(nc4cc(Cl)ccc24)CCCC3)nc(-c2ccncc2)cc1=O`, for which the IC50 at Acetylcholinesterase was 0.49 µM. The inhibition in assay [1] is less than 50%.

At Acetylcholinesterase, `Cn1c(NCCNc2c3c(nc4cc(F)ccc24)CCCC3)nc(-c2ccncn2)cc1=O` showed an IC50 of 0.18 µM. In addition, the inhibition in assay [1] was less than 50%.

On Acetylcholinesterase, `Cn1c(NCCNc2c3c(nc4ccc(Cl)cc24)CCCC3)nc(-c2ccncc2)cc1=O` had an IC50 of 10.9 µM. Further, the inhibition in assay [1] was less than 50%.

Regarding `Cn1c(NCCNc2c3c(nc4cc(Br)ccc24)CCCC3)nc(-c2ccncc2)cc1=O`, the midpoint of inhibition against Acetylcholinesterase, the IC50, lay at 0.44 µM. Besides, the inhibition in assay [1] is less than 50%.

Consider `Cn1c(NCCNc2c3c(nc4ccc(F)cc24)CCCC3)nc(-c2ccncc2)cc1=O`, for which it took 0.37 µM to reach half-maximal inhibition against Acetylcholinesterase (IC50). Moreover, the inhibition in assay [1] was less than 50%.

In turn, `Cn1c(NCCCCCCCNc2c3c(nc4cc(F)ccc24)CCCC3)nc(-c2ccncc2)cc1=O` displayed an IC50 on Acetylcholinesterase of 124 µM. Also, the inhibition in assay [1] was less than 60%.

With `COc1ccc(CNC(=O)Nc2ncc([N+](=O)[O-])s2)cc1`, on Acetylcholinesterase, the IC50 was greater than 40 µM.

`Cn1c(NCCCCCCNc2c3c(nc4cc(Br)ccc24)CCCC3)nc(-c2ccncc2)cc1=O` had an IC50 at Acetylcholinesterase of 45 µM. Moreover, the inhibition in assay [1] was less than 60%.

Molecule `Cn1c(NCCCNc2c3c(nc4ccccc24)CCCC3)nc(-c2ccncc2)cc1=O` displayed an IC50 on Acetylcholinesterase of 2.85 µM. Also, the inhibition in assay [1] was less than 50%.

`COc1ccc2c(NCCNc3nc(-c4ccncc4)cc(=O)n3C)c3c(nc2c1)CCCC3` showed an IC50 against Acetylcholinesterase of 8.3 µM. Besides, the inhibition in assay [1] is less than 50%.

Molecule `Cn1c(NCCCCCCNc2c3c(nc4cc(F)ccc24)CCCC3)nc(-c2ccncc2)cc1=O` registered an IC50 against Acetylcholinesterase of 163 µM. Besides, the inhibition in assay [1] is less than 60%.

Consider `Cn1c(NCCNc2c3c(nc4cc(C(F)(F)F)ccc24)CCCC3)nc(-c2ccncc2)cc1=O`, for which, on Acetylcholinesterase, the IC50 was found to be 11.3 µM. Also, the inhibition in assay [1] is less than 50%.
